Reference: patent US5369111A, “Modulator agent and use thereof” (University of Vermont, priority 1992, dated 1994)

Assays:
RCC-2 cells [1] = experiment: Inhibition of population growth (cytotoxicity), rat colon adenocarcinoma RCC-2; type: cell-based; conditions: Rattus norvegicus; RCC-2, 72 h
Excerpt: (§1) The analogs were examined in a panel of tumor cell lines of both intrinsic and acquired drug resistance, as described in Table 1. The rat colon adenocarcinoma cell lines RCC-2 and RCC-5 (ref. 13) were maintained in Ham's F12 medium supplemented with 5% heat-inactivated, fetal bovine serum (Sterile Systems. Hyclone, Logan, Utah). The two rat colon cancer cell lines differ in their degree of cellular differentiation; whereas the RCC-2 cell line is undifferentiated, the RCC-5 cell line is highly mucinous. The human epidermoid carcinoma cell line KB-3-1 and its MDR variant KB-Vl, selected by VBL treatment (ref. 14; courtesy of M. Gottesman. National Cancer Institute), was maintained in DMEM medium supplemented with 10%, heat-inactivated, fetal bovine serum. The murine sarcoma cell line […] and its MDR strains A3 and A10 selected by ADM treatment (ref. 15; courtesy of T. Tritton, Dept. Pharmacology, Univ. Vermont). were maintained in DMEM medium supplemented with 10% heat-inactivated, horse serum (Hazelton Biolog. Lenexa, Kans.). Stock cultures were subcultured twice weekly upon reaching the late exponential phase of population growth: population doubling times were 18-24 h. Antibiotics were not used in stock or experimental cultures. The MDR cell strains were grown in drug-free media for 48 h prior to experimental use.
(§2) Mid-exponential cultures were used for all assays. The RCC-2 and RCC-5 cell lines were seeded into 24-well plates at 2×10^4 cells/well and allowed to attach to the substratum for 16-18 h prior to treatment. The S180 cell lines were seeded into culture tubes at 1×10^5 cells/ml and treated immediately. Cytotoxicity was determined by quantitation of population growth after 72 h incubation by electronic particle counter (Coulter Electronics, Hialeah, Fla.). The human tumor cell lines were used in a clonogenic assay for cytotoxicity. Cells were seeded at 300 cells/dish, incubated overnight and then treated. Colonies were scored 7-11 days later. In all assays of analog modulation of drug sensitivity, the analog was added minutes prior to the addition of cytotoxic drug.

RCC-5 cells [2] = experiment: Inhibition of population growth (cytotoxicity), rat colon adenocarcinoma RCC-5; type: cell-based; conditions: Rattus norvegicus; RCC-5, 72 h
Excerpt: as §1, §2

S180 cells, parental [3] = experiment: Inhibition of population growth (cytotoxicity), S180 sarcoma, parental; type: cell-based, mouse; conditions: Mus musculus; for IC50: S-180
Excerpt: as §1, §2

KB-3-1 cells = experiment: Clonogenic assay for cytotoxicity, KB-3-1 parental; type: cell-based; conditions: Homo sapiens
Excerpt: as §1, §2

S180/A3 cells [4] = experiment: Inhibition of population growth (cytotoxicity), MDR strain S180/A3; type: cell-based, mouse
Excerpt: as §1, §2

S180/A10 cells [5] = experiment: Inhibition of population growth (cytotoxicity), MDR strain S180/A10; type: cell-based, mouse; conditions: 4320 min
Excerpt: as §1, §2

KB-V1 cells = experiment: Clonogenic assay for cytotoxicity, MDR variant KB-V1; type: cell-based, human
Excerpt: as §1, §2
FIG. 10 represents the potency of the analog C-20'-deoxy deethyl vincovaline as a modulator of the drug sensitivity of various cell lines: the parental S180 cell line: the two rat colon cancer cell lines, RCC-2 and RCC-5; and the human epidermoid carcinoma cell line KB-3-1 and its MDR cell strain KB-V1, which expresses very high levels of drug resistance (200-500 fold). The enhancement of sensitivity was calculated as the sensitivity index =IC50 of the drug alone divided by the IC50 of the drug+analog. The drugs examined were ADM (o), VBL (Δ), and VCR (.quadrature.). The cytotoxicity of drug and analog treatments in the KB cell lines were measured by cloning efficiencies. The arrows denote the non-toxic concentration limit of the analog in each cell line.

P388 R cells = experiment: Viability (MTT test) of P388 R cells; type: cell-based, mouse
Excerpt: The sensitization of C-20'-deoxy C-20'-deethyl vincovaline (D-DEV) has been tested on sensitive and resistants P388 cell lines originating from mouse lympnoma.
The resistance to anticancerous drug has been induced on DBA2 mouses bearing P388 cells ascites and maintained by treatment with adryamycin.
This study has been carried out at least in triplicate.

[6] = Inhibition of population growth (cytotoxicity), rat colon adenocarcinoma RCC-2; type: cell-based; conditions: rat, rcc-2 cells; RCC-2; Table III; read-out: Modulator concentration (nontoxic concentration limit of the analog)
Excerpt: as §1, §2

[7] = Inhibition of population growth (cytotoxicity), rat colon adenocarcinoma RCC-5; type: cell-based; conditions: rat, rcc-5 cells; RCC-5; Table III; read-out: Modulator concentration (nontoxic concentration limit of the analog)
Excerpt: as §1, §2

[8] = Inhibition of population growth (cytotoxicity), S180 sarcoma, parental; type: cell-based, mouse; conditions: mouse, s180 cells; S180; Table III; read-out: Modulator concentration (nontoxic concentration limit of the analog)
Excerpt: as §1, §2

[9] = system: S180/MDR cell system and rat colon cancer cell lines; experiment: Cytotoxicity in the S180/MDR cell system and the rat colon cancer cell lines; type: cell-based, mouse; conditions: S-180, 72 h
Excerpt: as §1, §2

S180 cells, parental [10] = experiment: Modulation of intrinsic drug resistance, parental S180; type: cell-based, murine; conditions: S180; IC50 drug alone / IC50 drug + modulator, at nontoxic concentration limit
Description: as §2
The ability of the compounds to modulate drug sensitivity in parental cells was studied over a range of concentrations of each compound, from 10^-6 M to the non-toxic (IC10-20) or solubility limit. […] From such experiments, we determined a sensitivity index derived from the IC50 of the drug without modulator treatment divided by the drug IC50 at each concentration of modulator.
When the sensitivity index for each drug, VBL, VCR and ADM is plotted versus the modulator concentration (FIG. 4), we can compare the relative potencies of the compounds as modulators of drug toxicity to the parental S180 cells.
(§3) *calculated as the IC50 of the drug alone divided by the IC50 o
(§4) the [drug modulator] combination. Data are presented from tretments with
FIG. 4 represents the potency of the vinca alkaloid compounds as modulators of drug sensitivity in S180 cells. The enhancement of sensitivity was calculated as the sensitivity index=IC50 of the drug alone divided by the IC50 of the drug+modulator. The IC50s for ADM (o) VBL (Δ), or VCR (.quadrature.) were determined over a concentration range of each modulator from data such as those depicted in FIG. 3. The values presented were averaged from duplicate samples of two separate experiments, S.D. <15% of the mean.

RCC-2 cells [11] = experiment: Modulation of intrinsic drug resistance, RCC-2; type: cell-based, rat; conditions: IC50 drug alone / IC50 drug + modulator, at nontoxic concentration limit
Description: as §2, §3, §4
(§5) the nontoxic concentration limit of each analog as noted.

RCC-5 cells [12] = experiment: Modulation of intrinsic drug resistance, RCC-5; type: cell-based, rat; conditions: RCC-5; IC50 drug alone / IC50 drug + modulator, at nontoxic concentration limit
Description: as §2, §3, §4, §5
FIG. 9 represents the modulation of VCR sensitivity in the RCC-12 (A) and RCC-5 (B) cell lines by the analog C-20'-deoxy deethyl vincovaline. Population growth was determined after 72 hours incubation in the absence (o), or presence of 10 μM (o), 20 μM (Δ), or 50 μM of analog. Data presented are from a typical experiment.

S180/A3 cells [13] = experiment: Modulator potency in MDR cells: reversal of acquired resistance, S180/A3; type: cell-based, murine
Description: as §2
(§6) To evaluate the ability of vindoline and the two diastereoisomeric VBL analogs to modulate the MDR phenotype (acquired resistance) of the A3 and A10 cell stains, we determined the concentration of compound required to restore drug sensitivities to parental levels. This was done by exposing the MDR cell line to a concentration range of modulator in the presence VBL, VCR and ADM at the respective IC70s of the parental cell line. The cytotoxicity curves for A3 and A10 cells, shown in FIG. 5, are distinctive among the three vinca alkaloids examined. In each cell line, there was a minimum concentration of modulator that elicited 70% growth inhibition for each drug - i.e. the reversing concentration.
(§7) *The minimal concentration of modulator required to restore the drug
(§8) sensitivity of S180/MDR cell strains to that of parental S180 cells. Data
(§9) are the averages of 2-3 separate experiments, S.D. ≤20%.

S180/A10 cells [14] = experiment: Modulator potency in MDR cells: reversal of acquired resistance, S180/A10; type: cell-based, murine
Description: as §2, §6, §7, §8, §9

[15] = system: S180 MDR cell strains A3 and A10; experiment: Modulation of acquired drug resistance in the S180 MDR cell strains A3 and A10; type: cell-based, murine; conditions: VBL, VCR, ADM
Description: as §2, §6
FIG. 5 represents the modulation of multidrug resistance in the MDR cell strains by the vinca alkaloids. Vindoline (A), vincovaline (B), or the analog C-20'-deoxy vincovaline (C) was added, at various concentrations, to A3 (closed symbols) or A10 (opened symbols) cell cultures containing the parental IC70 of each drug: 2.0×10^-7 M. ADM (circles: 1.5×10^-8 M VBL (triangles); and 4.5×10^-8 M; VCR (squares). Population growth was determined 72 hours later.
FIG. 6 represents the relationship between cellular drug resistance level and the minimal modulator concentration required for complete reversal of drug resistance. The drugs examined were ADM (o), VBL (Δ), and VCR (.quadrature.). The amount (concentration) of modulator, necessary to reverse each level of drug resistance contained in the A3 and A10 cell lines, was determined from data such as those of FIG. 5. The values presented were averaged from duplicate samples of two separate experiments, S.D.<15% of the mean. The arrows denote the non-toxic concentration limit for the modulator; in the case of Vincovaline this value is dependent on the MDR cell strain, 2×10^-5 M, A3; 5×10^-5 M. A10.
FIG. 11 represents the modulation of multidrug resistance in the S180 MDR cell strains A3 and A10. The cellular drug resistance level is plotted against the minimal concentration of C-20'-deoxy deethyl vincovaline required for the complete reversal of drug resistance to ADM (o), VBL (Δ), and VCR (.quadrature.). In the case of high level ADM resistance […], the sensitivity of the cells was restored to 80% of the parental value. The arrow denotes the non-toxic concentration limit of the analog.

[16] = system: parental cell lines (S180, RCC-2, RCC-5); experiment: Modulation of intrinsic resistance in the parental cell lines (S180, RCC-2, RCC-5); type: cell-based, mouse, rat
Description: as §2, §3, §4, §5

CC[C@]1(O)C[C@H]2CN(CCc3c([nH]c4ccccc34)[C@@](C(=O)OC)(c3cc4c(cc3OC)N(C=O)[C@H]3[C@@](O)(C(=O)OC)[C@H](OC(C)=O)[C@]5(CC)C=CCN6CC[C@]43[C@@H]65)C2)C1 [VCR, vincristine]
IC50 (RCC-2 cells [1]): 5 nM
IC50 (RCC-5 cells [2]): 15 nM
IC70 (S180 cells, parental [3]; S-180, 72 h, parental S180): 45 nM
IC50 (S180 cells, parental [3]; S180, parental, Table II): 30 nM
IC50 (S180 cells, parental [3]; S180 parental, 72 h, Table I): 30 nM
IC50 (KB-3-1 cells): 2 nM
Relative resistance (S180/A3 cells [4]; A3, IC50 resistant / IC50 parental, Table II, 4320 min): 10
Relative resistance (S180/A3 cells [4]; IC50 in S180/A3 divided by IC50 of parental, Table I): 7
Relative resistance (S180/A10 cells [5]; A10, IC50 resistant / IC50 parental, Table II): 20
Relative resistance (S180/A10 cells [5]; IC50 in S180/A10 divided by IC50 of parental, Table I): 17
resistance of KB-V1 to the drug (KB-V1 cells): ≥ 200 fold
Relative resistance (KB-V1 cells; IC50 in KB-V1 divided by IC50 of parental, Table I): 400
vincristine cytotoxicity towards P388 R cells (P388 R cells; 0.1 nM to 0.054 μM, 24 hours): lack of vincristine cytotoxicity
resistance of P388 R cells to cytotoxic activity of the drug (P388 R cells; FIGS. 12 to 14): resistance of P388 R cells to cytotoxic activity

CC[C@]12C=CCN3CC[C@@]4(c5cc([C@@]6(C(=O)OC)C[C@H]7CCCN(CCc8c6[nH]c6ccccc86)C7)c(OC)cc5N(C)[C@H]4[C@@](O)(C(=O)OC)[C@@H]1OC(C)=O)[C@@H]32 [analog n° 330, C-14'-epi-C-20'-deethyl C-20'-deoxy-vinblastine]
MNTC at 72 h [6]: 10 µM
MNTC at 72 h [7]: 10 µM
MNTC at 72 h [8]: 20 µM
IC50 [9]: ≥ 5000 nM
Maximum sensitization of parental cells by modulator, drug ADM (S180 cells, parental [10]): 4.2
Maximum sensitization of parental cells by modulator, drug VBL (S180 cells, parental [10]): 1.0
Maximum sensitization of parental cells by modulator, drug VCR (S180 cells, parental [10]): 2.0
Maximum sensitization of parental cells by modulator, drug ADM (RCC-2 cells [11]): 1.0
Maximum sensitization of parental cells by modulator, drug VCR (RCC-2 cells [11]): 2.0
Maximum sensitization of parental cells by modulator, drug ADM (RCC-5 cells [12]): 2.2
Maximum sensitization of parental cells by modulator, drug VBL (RCC-5 cells [12]): 2.0
Maximum sensitization of parental cells by modulator, drug VCR (RCC-5 cells [12]): 6.0
Modulator potency in MDR cells (minimal concentration restoring parental drug sensitivity), VBL (S180/A3 cells [13]; VBL, drug resistance level 3): 5200 nM
Modulator potency in MDR cells (minimal concentration restoring parental drug sensitivity), VCR (S180/A3 cells [13]; VCR, drug resistance level 7): 11. μM
Modulator potency in MDR cells (minimal concentration restoring parental drug sensitivity), ADM (S180/A10 cells [14]; ADM, drug resistance level 90): no effect
Modulator potency in MDR cells (minimal concentration restoring parental drug sensitivity), VBL (S180/A10 cells [14]; VBL, drug resistance level 10): 18. μM
restoration of parental drug sensitivity in MDR cells (in words) [15]: full restoration of parental drug sensitivity was achieved for VBL and low level VCR resistance, only
modulation of intrinsic cellular resistance to ADM and/or VCR (in words) ([16]; ADM, VCR): modulated intrinsic cellular resistance to ADM and/or VCR
effect on the sensitivity of parental cells to VBL (in words) ([16]; VBL): less effect on the sensitivity of parental cells to VBL
